Experimental data: PMC8961646, “Fibroblast Activation Protein Specific Optical Imaging in Non-Small Cell Lung Cancer” (Frontiers in Oncology, 2022)
Non-standard residues stand in square brackets, D forms with d. Residues, ends and D or L forms follow the SMILES beside them. *: point of attachment. 5FAM = O=C1OC2(c3ccc(O)cc3Oc3cc(O)ccc32)c2ccc(C(=O)*)cc21; MethylRed = CN(C)c1ccc(/N=N/c2ccccc2C(=O)*)cc1; AEEA = NCCOCCOCC(=O)O

What was measured:
[1] = Probe stability in activated neutrophil lysate
Experimental: Assays were undertaken in triplicate in blackened 384 well plates on ice prior to spectral reads.
Neutrophils were isolated from peripheral blood of healthy volunteers by discontinuous percoll gradients, as previously described ([29]). Cells were resuspended in PBS (at 10 million cells/ml) and stimulated with 1 µM calcium ionophore, then lysed with 1% Triton-X-100. Lysate was used at 1:1 dilution for experiments, replacing recombinant enzymes in the assay as described above, with PBS as the buffer.
MALDI spectra were acquired on a Bruker Ultraflextreme MALDI-TOF MS. Neutrophil lysate experiment samples were prepared by plating 1 µl of the sample with 1 µl of the matrix solution sinapic acid (10 mg/mL) in H2O/CH3CN/TFA (70/30/0.1).

[2] = tested on: FAP+ CAFs from NSCLC patient samples; assay: Probe cleavage on cancer associated fibroblasts (CAFs); assay type: cell-based, human; conditions: FAP3 5 µM, confluent CAF monolayer in 96 well plate, DPBS, read 480/530 nm for one hour, n=3 run in triplicate
Experimental: CAFs were isolated from NSCLC patient samples as previously described ([28]). Briefly, tissue samples were minced with forceps and incubated for an hour in prewarmed RPMI media (Gibco) containing collagenase IV [2 mg/ml] (Sigma) and DNase [0.2 mg/ml] (Sigma). Samples were spun at 350 g for 5 minutes and red blood cells were lysed from samples using RBC lysis buffer (BioLegend) in 10 ml for 10 minutes. Following a further spin at 350 g for 5 minutes, cells were seeded in culture flasks in DMEM containing 10% FCS, 1% Penicillin-Streptomycin, 1% L-Glutamine and 10% Insulin Transferrin Selenium (ITS). 24 hours after seeding, non-adherent cells were washed from the flasks. Cells were maintained by standard cell culture methods and by passage 2, the predominant cell type was CAFs, assessed by flow cytometry markers and morphology. CAFs between passage 4-9 were used to assess FAP probes and confirmed to be FAP^hi by flow cytometry.
CAFs were seeded into 96 well plates in a 100 µl media (complete DMEM as described above) at a density of 1x10^5 cells/ml to form a confluent monolayer within 24 hours. […] Immediately after adding imaging probes, the plate was transferred to the prewarmed spectrophotometer as above and read at 480/530 nm for one hour.

[3] = tested on: NSCLC patient tissue samples; assay: Fluorescence intensity and lifetime imaging (FLIM) of ex vivo NSCLC tissue; parameters: species or system human; conditions: FAP3 5 µM, ex vivo NSCLC samples N=5, imaged at 10-minute intervals to 40 minutes, 488 nm excitation
Experimental: For imaging solutions, varying concentrations of rhFAP were prepared in blackened eppendorfs and FAP3 to a final concentration of 5µM added and imaged as below. For biological specimens, NSCLC patient tissue samples from surgical resection were used fresh or snap frozen and stored at -80°C until required. Small fragments (approx. 4mm^3) incubated at 37°C in a 96 well plate in phenyl-red free DMEM (Gibco) containing 10% FCS, 1% Penicillin-streptomycin and 1% L-Glutamine. For the tissue fragments to be used as inhibitor controls, we added Talabostat at a dilution of 1:1000. Samples were then imaged using a clinically approved fluorescence lifetime imaging system used in conjunction with an imaging fibre ([30]) providing a 400 x 400 µm field of view. The imaging system incorporates a pulsed supercontinuum laser source, in this case tuned for excitation at 488 nm, with an achromatic confocal laser scanning system and a time-resolved spectrometer. This spectrometer contains a 512 channel single photon avalanche diode (SPAD) sensor ([31]) allowing for the rapid collection of time resolved spectral fluorescence lifetime data. Fluorescence intensity and lifetime images were collected using an image resolution of 160 x 160 pixels over a 498 – 570 nm spectral range with an exposure time of 13 µs per pixel. This led to an imaging rate of ~3 frames per second.
For each condition, the tumour samples were imaged using a fibre placed at the surface of the tissue (baseline), and then again at 10-minute intervals following the additions of equimolar concentrations of probe +/- Inhibitor. For imaging solutions, the fibre was held within the solution and imaged every 5 minutes. Each condition and time-point data for both fluorescence intensity and lifetime were collected. Imaging sequences had non-relevant frames removed, and the entire field of view was analysed. Analysis was undertaken using a bespoke software suite utilising the rapid lifetime determination (RLD) method ([32]). […]

[4] = biological target: rhDPPIV (Homo sapiens, UniProt P27487); assay: Probe cleavage by recombinant human DPP-IV (exopeptidase activity); conditions: probe 5 µM, rhDPPIV 0.1 µg/ml, TRIS buffer pH 7.5, read 480/530 nm, n=3 run in triplicate
Chain of rhDPPIV (P27487 29-766 limits assumed): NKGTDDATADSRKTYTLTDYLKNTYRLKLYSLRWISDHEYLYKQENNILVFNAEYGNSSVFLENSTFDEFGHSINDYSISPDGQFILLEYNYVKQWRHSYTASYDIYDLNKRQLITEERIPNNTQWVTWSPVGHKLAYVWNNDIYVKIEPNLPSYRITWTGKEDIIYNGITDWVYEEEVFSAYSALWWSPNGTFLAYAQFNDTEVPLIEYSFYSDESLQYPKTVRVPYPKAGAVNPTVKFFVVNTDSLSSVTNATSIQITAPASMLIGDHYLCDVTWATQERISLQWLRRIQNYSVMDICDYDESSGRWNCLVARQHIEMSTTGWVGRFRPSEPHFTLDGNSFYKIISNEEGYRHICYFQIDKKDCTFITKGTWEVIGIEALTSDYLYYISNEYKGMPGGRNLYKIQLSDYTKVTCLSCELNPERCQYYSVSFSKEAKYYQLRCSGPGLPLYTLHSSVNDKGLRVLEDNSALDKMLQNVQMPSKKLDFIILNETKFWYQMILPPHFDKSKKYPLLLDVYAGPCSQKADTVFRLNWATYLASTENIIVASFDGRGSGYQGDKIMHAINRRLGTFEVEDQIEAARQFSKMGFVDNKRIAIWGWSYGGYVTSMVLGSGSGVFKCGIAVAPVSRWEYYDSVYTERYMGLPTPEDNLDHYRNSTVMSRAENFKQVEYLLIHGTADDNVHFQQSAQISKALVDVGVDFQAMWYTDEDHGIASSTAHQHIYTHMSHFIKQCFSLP
Experimental: Recombinant human enzymes [rhFAP (R&D Systems), rhPREP (R&D Systems) and rhDPPIV (Biolegend)] were stored in stocks at -70°C and diluted as required to be used at final concentration of 0.1 µg/ml. Enzymes were aliquoted upon receipt from the supplier and new stocks made from a fresh aliquot as required.
Assays were undertaken in triplicate in blackened 384 well plates on ice prior to spectral reads. […] All wells contained a final volume of 20 µl to include buffers, inhibitors (if used), substrates and recombinant human enzymes (at a concentration of 0.1 µg/ml unless otherwise stated). […] Plates were sealed with an optical plate sealer (Biolegend) and were read in a preheated spectrophotometer (Synergy Biotek) in monochromator-based mode at 380/460 nm for control substrates and 480/530 nm for synthesised FAP probes.

[5] = biological target: T1, MMP 2 (Homo sapiens, UniProt P08253); assay: Probe assessment against recombinant MMP panel; assay type: biochemical; conditions: recombinant enzyme, n=2 run in triplicate
T1 sequence (P08253 110-660): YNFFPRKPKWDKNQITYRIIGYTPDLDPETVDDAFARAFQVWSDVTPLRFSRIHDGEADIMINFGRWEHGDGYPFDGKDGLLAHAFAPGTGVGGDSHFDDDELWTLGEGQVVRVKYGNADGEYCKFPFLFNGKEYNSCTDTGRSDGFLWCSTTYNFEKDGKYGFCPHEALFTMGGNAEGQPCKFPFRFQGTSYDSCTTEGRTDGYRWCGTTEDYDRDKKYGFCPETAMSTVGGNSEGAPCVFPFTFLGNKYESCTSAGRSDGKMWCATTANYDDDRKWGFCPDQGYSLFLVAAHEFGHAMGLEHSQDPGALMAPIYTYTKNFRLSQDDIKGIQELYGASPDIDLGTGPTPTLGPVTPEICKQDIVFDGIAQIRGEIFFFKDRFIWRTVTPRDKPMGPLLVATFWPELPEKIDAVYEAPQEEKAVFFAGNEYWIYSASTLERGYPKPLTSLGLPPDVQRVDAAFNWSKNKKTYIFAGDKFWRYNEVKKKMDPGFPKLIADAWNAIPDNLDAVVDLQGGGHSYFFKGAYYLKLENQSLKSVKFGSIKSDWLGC

[6] = biological target: MMP 13 (Homo sapiens, UniProt P45452); assay: Probe assessment against recombinant MMP panel; assay type: biochemical; conditions: recombinant enzyme, n=2 run in triplicate
[7] = biological target: T2, rhFAP (Homo sapiens, UniProt Q12884); assay: Probe cleavage by recombinant human FAP (fluorescence plate assay, MALDI confirmation); assay type: biochemical
T2 construct: purchased R&D Systems
T2 sequence (Q12884 26-760 limits assumed): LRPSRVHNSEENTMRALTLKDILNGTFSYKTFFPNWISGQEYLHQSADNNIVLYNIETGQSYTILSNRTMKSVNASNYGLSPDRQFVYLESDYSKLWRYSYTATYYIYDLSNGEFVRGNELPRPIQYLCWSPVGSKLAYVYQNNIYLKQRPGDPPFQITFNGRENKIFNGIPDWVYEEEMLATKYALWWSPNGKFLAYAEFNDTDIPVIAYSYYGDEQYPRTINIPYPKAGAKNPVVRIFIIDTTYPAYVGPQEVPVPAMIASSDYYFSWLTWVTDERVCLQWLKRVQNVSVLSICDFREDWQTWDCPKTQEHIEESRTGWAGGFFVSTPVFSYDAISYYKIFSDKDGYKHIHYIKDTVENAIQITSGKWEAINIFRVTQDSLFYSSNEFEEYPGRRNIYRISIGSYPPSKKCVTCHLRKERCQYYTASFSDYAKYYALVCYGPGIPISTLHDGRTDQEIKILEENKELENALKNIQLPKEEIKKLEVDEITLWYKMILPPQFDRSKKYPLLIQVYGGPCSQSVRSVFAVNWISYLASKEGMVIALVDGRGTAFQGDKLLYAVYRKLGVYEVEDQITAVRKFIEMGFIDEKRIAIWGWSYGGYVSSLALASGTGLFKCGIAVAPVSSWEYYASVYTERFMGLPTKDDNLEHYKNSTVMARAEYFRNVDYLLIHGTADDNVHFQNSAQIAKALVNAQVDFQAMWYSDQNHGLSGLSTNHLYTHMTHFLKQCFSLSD

[8] = biological target: MMP 9 (Homo sapiens, UniProt P14780); assay: Probe assessment against recombinant MMP panel; assay type: biochemical; conditions: recombinant enzyme, n=2 run in triplicate
Chain of MMP 9 (P14780 94-707): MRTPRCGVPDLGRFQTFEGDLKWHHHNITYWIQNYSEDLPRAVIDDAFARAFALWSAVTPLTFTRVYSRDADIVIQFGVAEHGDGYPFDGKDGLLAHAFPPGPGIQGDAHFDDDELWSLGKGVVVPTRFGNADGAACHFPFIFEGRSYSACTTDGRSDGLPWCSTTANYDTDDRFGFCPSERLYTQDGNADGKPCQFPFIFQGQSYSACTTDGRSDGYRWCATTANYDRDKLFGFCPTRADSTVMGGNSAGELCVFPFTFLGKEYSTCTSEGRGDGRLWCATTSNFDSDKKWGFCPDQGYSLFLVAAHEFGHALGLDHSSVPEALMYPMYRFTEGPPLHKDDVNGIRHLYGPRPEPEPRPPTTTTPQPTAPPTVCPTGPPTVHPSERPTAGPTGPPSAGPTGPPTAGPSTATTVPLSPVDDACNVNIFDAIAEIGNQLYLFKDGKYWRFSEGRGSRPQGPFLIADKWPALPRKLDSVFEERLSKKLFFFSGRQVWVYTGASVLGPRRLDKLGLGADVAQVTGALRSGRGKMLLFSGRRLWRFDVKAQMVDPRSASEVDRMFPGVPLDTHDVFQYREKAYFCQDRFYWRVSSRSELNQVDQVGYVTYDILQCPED

## CC(C)[C@H](NC(=O)[C@@H](N)CCCCNC(=O)c1ccccc1/N=N/c1ccc(N(C)C)cc1)C(=O)N[C@H](CO)C(=O)N1CCC[C@H]1C(=O)N[C@@H](CC(N)=O)C(=O)N[C@@H](CCC(N)=O)C(=O)NCC(=O)N[C@@H](CCCCNC(=O)c1ccc2c(c1)C(=O)OC21c2ccc(O)cc2Oc2cc(O)ccc21)C(=O)NCCOCCOCC(=O)N[C@H](CCCCN)C(=O)NCCOCCOCC(=O)N[C@H](CCCCN)C(=O)NCCOCCOCC(=O)N[C@H](CCCCN)C(N)=O [FAP3] (H-K(MethylRed)V[dS]PNQGK(5FAM)[AEEA][dK][AEEA][dK][AEEA][dK]-NH2)
[1]; activated human neutrophil lysate, MALDI-TOF read-out, sinapic acid matrix
  Stability in activated neutrophil lysate (MALDI-TOF): remained intact
[1]; human neutrophils 10 million cells/ml, 1 µM calcium ionophore, lysed with 1% Triton-X-100, lysate at 1:1 dilution, PBS, fluorescence 480/530 nm, n=2 run in triplicate
  Stability in activated neutrophil lysate (fluorescence): stable
[2]
  Cleavage by FAP+ CAFs (fluorescence): cleaved
[3]; 37°C
  Change in fluorescence intensity in NSCLC tissue: increase in fluorescence intensity
[3]; RLD method
  Change in fluorescence lifetime in NSCLC tissue: change to a longer lifetime signature
[4]
  Cleavage by DPP-IV (exopeptidase activity, fluorescence signal): no cleavage
[5]
  Activity with MMP 2: no activity
[6]
  Activity with MMP 13: no activity
[7]; MALDI-TOF read-out, cleavage post proline
  Cleavage of FAP3 by rhFAP confirmed by MALDI: confirming the cleavage
[7]; probe 5 µM, rhFAP compared with rhPREP, each 0.1 µg/ml
  FAP specificity (over PREP): demonstrated FAP specificity
[8]
  Activity with MMP 9: no activity
